Like-named read-outs stand apart in the source and are kept apart here.
Legend:
[1] = Mouse deaths over all experiments; format: in vivo, mice
Description: In the second experiment, a higher concentration of S-SNACH (20 mg/kg) was used. […] The percentile death of mice was high in the LMWH group and reached 6 animals (50%) at the end of the experiment due to internal bleeding after two invasive surgeries. At the end of all experiments, the percentile death among all groups was calculated and compared.
The average dose of LMWH for enoxaparin in humans is 1.0-1.5 mg/kg and relatively higher in mice. In the experiment performed in the present invention, 5-10 mg/kg was used for LMWH (tinzaparin) and as high as 20-100 mg/kg was used for SNACH.

[2] = tested on: intrinsic pathway of the coagulation cascade; assay: APTT assay; format: biochemical
Description: Activated Partial Thromboplastin Time (aPTT) is sensitive to all factors in the intrinsic pathway of the coagulation cascade and the presence of heparin. The aPTT was measured for each of the 8 USP heparins, using the ACL 8000 Beckman Coulter coagulation analyzer and the Trinity Biotech Trini CLOT Automated aPTT assay kit (Berkeley Heights, N.J.). Additionally, aPTT was measured for heparin, LMWH, and S-NACH.

[3] = Whole blood clotting times by Sonoclot Analyzer and TEG; format: in vivo; conditions: intravenous, 10 mg/kg, mice, n=5
Description: Two heparins, commercial formulation Enoxaparin and non-anticoagulant heparin (NACH) including S-NACH or S-SNACH were evaluated for their effects on coagulation. Whole blood clotting times were measured by the Sonoclot Analyzer (left panel) and by TEG (right panel); n=5.

253JBV bladder cells = assay: Western blots of bladder cancer cell proteins; format: cell-based; conditions: 48 hour; Cisplatin 10 ug/ml, S-NACH 20 ug/ml, LMWH 20 ug/ml
Description: 253JBV bladder cells were cultured and treated [Control (PBS), Cisplatin (10 ug/ml), S-NACH (20 ug/ml), LMWH (20 ug/ml)] for 48 hour. Total proteins were collected to quantitate expression of the proteins using western blots.

MCF7-WT cells = assay: Nanoparticle Dox formulations in mice with MCF7-WT tumors; format: in vivo; conditions: treatment begun 10 days after inoculation; n=8
Excerpt: Mice were inoculated with 1.4×10^7 MCF7-WT cells. […] Tumor volume measurements were obtained over time course shown. Values are mean tumor volume in mm^3±SEM, n=8 mice/group.

MCF7-R cells = assay: Nanoparticle Dox formulations in mice with MCF7-R tumors; format: in vivo
Description: FIG. 20 depicts anti-tumor efficacy of nanoparticle formulations encapsulating Doxorubicin with and without LMWHs vs. un-encapsulated Doxorubicin in mice with MCF7-R Tumors, in accordance with embodiments of the present invention. […] Treatments, as shown in legend, were begun after tumors had reached a size of 50-100 mm^3. Tumor volumes were measured daily. Animals were euthanized when Controls reached a size of 2000 mm^3 (as per IACUC approval).
In vivo data using in mice xenograft (MCF-7R) are shown in Table 5 (amounts of doxorubicin and NACH injected in all cases were 0.625 mg/kg and 2.5 mg/kg body weight).

MPanc96-luc cells = format: in vivo, athymic nude mice; conditions: S-NACH 20 mg/kg s.c. daily, gemcitabine 100 mg/kg i.p. twice a week, 28 days
Description: MPanc96-luc cells were harvested as described above and were orthotopically implanted (2×10^5 cells in 50 μl PBS per mouse) in the pancreas of anesthetized athymic nude mice. Just before treatment initiation, animals (n=10 per group) were randomized by tumor mass detected by an in vivo imaging system (IVIS, described below). Heparin derivatives S-NACH at 20 mg/kg and tinzaparin at 5 mg/kg were administered subcutaneously daily. Gemcitabine at 100 mg/kg was injected intraperitoneally twice a week alone or in combination with either S-NACH or tinzaparin. All mice used for treatment response evaluations were euthanized after 28 days. See Table 2 for the protocol of the study. Imaging was performed once per week to monitor tumor growth. Mice bearing MPanc96-luc tumors were anaesthetized using isoflurane, injected subcutaneously with 50 μl D-luciferin (30 mg/ml), then imaged. Photographic and luminescence images were taken at constant exposure time. Xenogen IVIS® Living Image software version 3.2 was used to quantify non-saturated bioluminescence in regions of interest. Light emission between 5.5×10^6-7.0×10^10 photons was assumed to be indicative of viable luciferase-labeled tumor cells while emissions below this range were considered as background. Bioluminescence was quantified as photons/second for each region of interest. In vivo tumor kinetic growth and metastasis were monitored by signal intensity. Ex vivo imaging was performed to confirm the signal intensity in the tumors after the termination. All specimens were analyzed by histology for routine analysis. Specimens were fixed in 10% buffered formalin, processed routinely, and embedded in paraffin. Then, after fixation, the specimens were transferred into the embedding chambers to hold the specimens in position until the paraffin became solid to prevent further rotation. Four μm serial sections were cut, and then stained using haematoxylin and eosin. Sections were evaluated for various pathologic parameters using a light microscope (Leica, Buffalo Grove, Ill.).

Heparin
rate of death among the mice [1]: higher mortality | aPTT [2]: increased aPTT in a dose-dependent manner

Enoxaparin
clot times (whole blood clotting time, time to clot initiation) [3]: significantly prolonged

N.N.[Cl][Pt][Cl] [Cisplatin]
E-cadherin protein expression (253JBV bladder cells): increased | MMP-2 protein expression (253JBV bladder cells): reduced

COc1cccc2c1C(=O)c1c(O)c3c(c(O)c1C2=O)C[C@@](O)(C(=O)CO)C[C@@H]3O[C@H]1C[C@H](N)[C@H](O)[C@H](C)O1 [Doxorubicin]
tumor growth (tumor volume) (MCF7-WT cells): effectively inhibited | tumor volume over time (MCF7-R cells; FIG. 20 Panel A): same pattern of tumor growth as untreated controls | Tumor Mass (MCF7-R cells; doxorubicin 0.625 mg/kg, NACH 2.5 mg/kg body weight, mean): 1.3 g

Nc1ccn([C@@H]2O[C@H](CO)[C@@H](O)C2(F)F)c(=O)n1 [Gemcitabine]
tumor luciferin signal intensity (MPanc96-luc cells): reduced | tumor weights (MPanc96-luc cells): reduced | tumor luciferin signal intensity (MPanc96-luc cells; listed as GEM): suppression of tumor signal intensity
